The results in this text go back to patent US6620828B2, “Thiazole compounds and pharmaceutical compositions for inhibiting protein kinases and methods for their use” (Agouron Pharmaceuticals, Inc., priority 1999, dated 2003).

The target in one experiment is CDK2/Cyclin A complex (Homo sapiens, UniProt P24941). Description: CDK2/Cyclin A assay. As to conditions: Table 2. Format: biochemical. The essentials: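 Radiometric assay: 150 nM CDK2/cyclin A (insect-cell CDK2, truncated cyclin A) phosphorylates His-tagged Rb fragment (residues 386-928) with 25 μM ATP plus [32P]ATP, pH 7.4 HEPES, 2% DMSO, 30 °C for 20 min. Filter-captured product counted by phosphorimager; apparent Ki from competitive or tight-binding inhibition fits.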

The next experiment addresses T1, CDK4/Cyclin D3 complex (Homo sapiens, UniProt P11802).
T1 construct: made in house; host or cells: insect cells co-infected with baculovirus vectors
Kind of experiment: CDK4/Cyclin D assay. The experiment is classed as biochemical. As to conditions: Table 2. The essentials:
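Insect-cell-expressed CDK4/cyclin D3 (50 nM) phosphorylating His-tagged Rb fragment (residues 386-928) with 25 μM [^32P]ATP in HEPES pH 7.4, MgCl2, 2% DMSO; 20 min at 30 °C, EDTA stop. Filter-captured 32P by phosphorimager; apparent Ki from competitive or tight-binding inhibition fits.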

The subject of experiment [1] is human umbilical vein endothelial cells (HUVEC). Kind of experiment: HUVEC proliferation assay. The experiment is classed as cell-based. As to conditions: Homo sapiens, HUVEC, Table 2. The gist of the method:
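Exponentially growing HUVEC were serum-starved 24 h (F12K + 1% FBS), pre-treated 1 h with compound (0.1% DMSO final), then stimulated with 6 ng/ml VEGF. Proliferation was read 72 h later by MTT reduction (A595). IC50 came from seven 0.5-log concentrations in triplicate; screens gave % inhibition relative to VEGF-only and starved wells.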

The test system of experiment [2] is lung cancer cells (line MV522). Description: Cancer cell proliferation (MV522) assay. Format: cell-based. To be noted: MV522, Table 2.

T1 sequence (P11802 whole entry): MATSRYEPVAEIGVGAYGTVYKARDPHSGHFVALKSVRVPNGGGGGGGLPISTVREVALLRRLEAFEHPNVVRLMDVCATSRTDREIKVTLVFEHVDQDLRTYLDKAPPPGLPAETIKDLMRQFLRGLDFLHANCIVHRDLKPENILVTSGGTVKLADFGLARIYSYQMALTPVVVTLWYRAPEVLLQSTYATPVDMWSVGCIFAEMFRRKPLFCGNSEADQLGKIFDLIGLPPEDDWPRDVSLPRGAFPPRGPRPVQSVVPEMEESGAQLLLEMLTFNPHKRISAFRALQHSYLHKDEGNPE
T1 sequence (P30281 whole entry partner): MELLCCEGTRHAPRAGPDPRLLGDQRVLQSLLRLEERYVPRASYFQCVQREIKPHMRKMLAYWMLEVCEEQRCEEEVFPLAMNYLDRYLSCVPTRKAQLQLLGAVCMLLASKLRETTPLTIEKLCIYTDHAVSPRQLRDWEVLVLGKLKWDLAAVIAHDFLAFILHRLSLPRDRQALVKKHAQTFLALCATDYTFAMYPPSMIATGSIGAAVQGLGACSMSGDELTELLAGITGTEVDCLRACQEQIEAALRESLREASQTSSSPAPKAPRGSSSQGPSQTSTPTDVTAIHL

The Ki is the dissociation constant of the complex between target and ligand, obtained from inhibition or displacement. For orientation: IC50 means the midpoint of a concentration-inhibition curve. A higher IC50 goes with weaker potency in that assay. `COc1cc(Nc2nc(N)c(-c3nc(-c4cccc(O)c4)cs3)s2)cc(OC)c1OC` [A(17), 3-[4′-Amino-2′-(3,4,5-trimethoxy-phenylamino)-[2,5′]bithiazolyl-4-yl]-phenol]: the Ki came to 2.1 µM at CDK2/Cyclin A complex and 29 µM at CDK4/Cyclin D3 complex. For the same compound, the IC50 in experiment [1] was more than 1 µM; in experiment [2] it was more than 10 µM.
Taken in the same sequence, the figures for `CCCNc1nc(N)c(-c2nc(-c3cccc(O)c3)cs2)s1` [A(29), 3-(4′-Amino-2′-propylamino-[2,5′]bithiazolyl-4-yl)-phenol] were 6.4 µM, 13 µM, more than 1 µM and more than 10 µM.
In the case of `COc1cc(Nc2nc(N)c(-c3nc(-c4cccc(O)c4)no3)s2)cc(OC)c1OC` [K(1), 3-{5-[4-Amino-2-(3,4,5-trimethoxy-phenylamino)-thiazol-5-yl]-[1,2,4]oxadiazol-3-yl}-phenol], the values for the Ki at CDK2/Cyclin A complex and at CDK4/Cyclin D3 complex were 0.62 µM and 6.7 µM, respectively. For the same compound, the IC50 is 0.95 µM in experiment [1] and 5.4 µM in experiment [2].
